US20250288587A1, “Methods of Treating Fibrosis” (Athira Pharma, Inc., priority 2022, published 2025)

Legend:
[1] = test system: THP-1-differentiated macrophages; experiment: Pro-inflammatory cytokine expression in LPS-challenged THP-1-differentiated macrophages; type: cell-based, human; set-up: key to IL-6, significant reduction in culture supernatant vs LPS treatment / TNF-α, significant reduction in culture supernatant vs LPS treatment / IL-1β, significant reduction in culture supernatant vs LPS treatment: “NS” indicates a non-significant reduction in the indicated cytokine; “+” indicates a p value <0.05 in Tukey post test; “++” indicates a p value <0.01 in Tukey post test; conditions: for IL-1β, significant reduction in culture supernatant vs LPS treatment / IL-6, significant reduction in culture supernatant vs LPS treatment / TNF-α, significant reduction in culture supernatant vs LPS treatment: 20 min pre-treatment, 24 hrs LPS; for expression of IL-1β and TNF-α / expression of IL-6: at at least one tested dose
Description: Differentiation with PMA causes THP-1 monocyte cells to acquire functional and morphological resemblance to macrophages. LPS interacts with THP-1 differentiated macrophage through the toll-like receptor 4, triggering the inflammatory response and stimulating pro-inflammatory cytokine release and eventually leading to cellular death. Compounds were tested to determine their anti-inflammatory effects on LPS-challenged macrophage cultures. THP-1-differentiated macrophages were treated with test compounds for 20 minutes, followed by 24 hrs of LPS challenge. Culture supernatants were then collected to analyzed for the presence of pro-inflammatory cytokines: […], interleukin 6 (IL-6) and tumor necrosis factor α (TNF-α).
Cytokine quantification in cell culture supernatants was accomplished by HTRF kits to assess levels of IL-1β (Human IL-1β kit, #62HIL1BPEG, Cisbio) and IL-6 (Human IL-6 kit, 62HIL06PET, Cisbio), and by ELISA to determine the levels of TNF-α (Human TNF-α ELISA kit, KHC3011, ThermoFisher).
Data analysis was performed via 1-way ANOVA with Tukey post-test compared to LPS treatment cultures using Prism statistical software (GraphPad). Tabular data indicates significance of reduction in culture supernatants for the indicated analyte at the indicated doses.

[2] = test system: pulmonary LPS-stimulated rats; experiment: Immune cell infiltration in BALF, LPS-induced acute pulmonary inflammation; type: in vivo; set-up: key to Total Leukocytes in BALF, reduction in cell count vs disease control / Neutrophils in BALF, reduction in cell count vs disease control: + = >5-25% improvement vs disease control; ++ = >26-50% improvement vs disease control; +++ = >51-100% improvement v disease control; NS means not significant; conditions: 24 h and 0.5 h before LPS; for Neutrophils in BALF, reduction in cell count vs disease control / Total Leukocytes in BALF, reduction in cell count vs disease control: BALF 4 h post LPS; for total leukocyte counts and neutrophil counts in BALF compared to LPS-only controls: IV
From the text: Acute pulmonary inflammation can be effectively modeled in rats by intratracheal administration of bacterial lipopolysaccharides (LPS). Pulmonary inflammation that is left unresolved can lead to pulmonary fibrosis. The normal process of inflammation is regulated and promoted by expression, secretion, and distribution of inflammatory signaling proteins. Therapeutics intended to reduce inflammation are commonly identified by their ability to change the expression levels of inflammatory signaling molecules, either by disruption of the inflammatory pathway directly, or resolution of the inflammatory signaling cascade. The severity of inflammatory response can be measured by quantifying the amount of immune cell infiltration and secretion of cytokine signaling proteins in bronchoalveolar lavage fluid (BALF).
In this study, acute pulmonary inflammation was induced in healthy male Sprague-Dawley rats (7-9 weeks old at study start) by intratracheal instillation of […] LPS in saline. Test animals were treated with test compounds twice, at 24 hours and 0.5 hours before LPS treatment by intravenous (IV) injection. […] Four hours post LPS administration, animals were euthanized by intraperitoneal injection of thiopentone and 20 mL of cold Hanks Balanced Salt Solution, pH 7.2, was infused into the lungs through tracheal cannulation. BALF was then collected.
Immune cell infiltration was performed by counting total leukocytes using a MUSE® mini flow cytometer, and by manual counting of neutrophil cells in cytospin smears stained with Leishman's staining reagent.

CFA-stimulated rats = experiment: CFA inflammatory pain model, cytokine expression in paw skin; type: in vivo; set-up: key to IFN-γ expression in paw skin, change compared to CFA alone / IL-4 expression in paw skin, change compared to CFA alone / TNF-α expression in paw skin, change compared to CFA alone: NS = no statistically significant change in expression compared to CFA alone; + = statistically significant change in expression compared to CFA alone, p < 0.05; conditions: day 8
Description: Response to peripheral inflammatory stimulus can be modeled by administering complete Freund's adjuvant (CFA), a suspension of desiccated mycobacterium in paraffin oil and mannide monooleate, by subcutaneous injection into the rat's footpad. The introduction of CFA to peripheral tissues leads to a rapid, sustained, inflammatory reaction in the treated tissue within 24 hours. Subcutaneous administration of CFA in the plantar region of the paw induces inflammatory pain behaviors that persist for at least 8 days. CFA treatment also leads to the accumulation of inflammatory cytokines in paw tissue at the site of injury, which, if unresolved, can lead to formation of fibrotic tissue. The extent of inflammatory response to CFA can be assessed by quantification of inflammatory cytokines in paw skin lysate, and inflammatory pain behaviors by mechanical allodynia (von Frey test) and thermal hyperalgesia (Hargreaves test).
In another study, Compounds 1a, 5a, and 6a were similarly tested against CFA-induced inflammatory stimulation in the right hind foot for their ability to reduce pain behaviors. This study also included quantification of inflammatory cytokine expression in paw skin lysate. Inflammatory pain stimulation with CFA injection and assessment of mechanical and thermal pain behaviors were performed as described above, with the exception that only post-dose pain behavior testing is reported.
Intraplantar CFA injection occurred at day 0. Treatment with Compounds 1a, 5a, and 6a occurred at days −2, 1, 3, and 7. At day 8, the rats were terminated and cytokine levels were measured in paw skin and plasma. Tissue from paw bone, joint, and muscle were obtained for H&E staining and analysis. Cytokine levels in test compound-treated animals were compared to CFA-stimulated animals. Analytes included interleukin 4 (IL-4), tumor necrosis factor alpha (TNF-α) and interferon gamma (IFN-γ). Statistical analysis consisted of 1-way ANOVA followed by Dunnett's multiple comparisons post-test. Mechanical allodynia and thermal hyperalgesia were tested 1 hour post-dosing on days 1, 3, and 7. PWT refers to […] paw withdrawal threshold where a higher value corresponds to a higher pain threshold. PWL refers to […] paw withdrawal latency where a higher value corresponds to a higher pain threshold.

CCC(C)CN1CC2N(C(=O)c3ccc(C(F)(F)F)cc3)CCC(=O)N2[C@@H](C)C1=O (stereo partly shown) [Compound 1a]
IL-1β, significant reduction in culture supernatant vs LPS treatment ([1]; 0.1 nM): ++ (“++” indicates a p value <0.01 in Tukey post test) | IL-6, significant reduction in culture supernatant vs LPS treatment ([1]; 0.1 nM): NS | TNF-α, significant reduction in culture supernatant vs LPS treatment ([1]; 0.1 nM): ++ (“++” indicates a p value <0.01 in Tukey post test) | IL-1β, significant reduction in culture supernatant vs LPS treatment ([1]; 10 nM): ++ (“++” indicates a p value <0.01 in Tukey post test) | IL-6, significant reduction in culture supernatant vs LPS treatment ([1]; 10 nM): ++ (“++” indicates a p value <0.01 in Tukey post test) | TNF-α, significant reduction in culture supernatant vs LPS treatment ([1]; 10 nM): ++ (“++” indicates a p value <0.01 in Tukey post test) | IL-1β, significant reduction in culture supernatant vs LPS treatment ([1]; 1000 nM): ++ (“++” indicates a p value <0.01 in Tukey post test) | IL-6, significant reduction in culture supernatant vs LPS treatment ([1]; 1000 nM): + (“+” indicates a p value <0.05 in Tukey post test) | TNF-α, significant reduction in culture supernatant vs LPS treatment ([1]; 1000 nM): ++ (“++” indicates a p value <0.01 in Tukey post test) | expression of IL-1β and TNF-α [1]: significantly reduced | expression of IL-6 [1]: significantly reduced | Neutrophils in BALF, reduction in cell count vs disease control ([2]; 0.075 mg/kg IV): + (+ = >5% reduction in cell count vs disease control) | Total Leukocytes in BALF, reduction in cell count vs disease control ([2]; 0.075 mg/kg IV): + (+ = >5% reduction in cell count vs disease control) | Neutrophils in BALF, reduction in cell count vs disease control ([2]; 0.75 mg/kg IV): NS | Total Leukocytes in BALF, reduction in cell count vs disease control ([2]; 0.75 mg/kg IV): NS | total leukocyte counts and neutrophil counts in BALF compared to LPS-only controls [2]: reduced both total leukocyte counts and neutrophil counts | IFN-γ expression in paw skin, change compared to CFA alone (CFA-stimulated rats; 8 mg/kg PO): + (+ = statistically significant change in expression compared to CFA alone, p < 0.05) | IL-4 expression in paw skin, change compared to CFA alone (CFA-stimulated rats; 8 mg/kg PO): + (+ = statistically significant change in expression compared to CFA alone, p < 0.05) | TNF-α expression in paw skin, change compared to CFA alone (CFA-stimulated rats; 8 mg/kg PO): + (+ = statistically significant change in expression compared to CFA alone, p < 0.05) | IFN-γ expression in paw skin, change compared to CFA alone (CFA-stimulated rats; 16 mg/kg PO): NS | IL-4 expression in paw skin, change compared to CFA alone (CFA-stimulated rats; 16 mg/kg PO): + (+ = statistically significant change in expression compared to CFA alone, p < 0.05) | TNF-α expression in paw skin, change compared to CFA alone (CFA-stimulated rats; 16 mg/kg PO): + (+ = statistically significant change in expression compared to CFA alone, p < 0.05)

CCC(C)CN1CC2N(Cc3ccc(C(F)(F)F)cc3)CCC(=O)N2[C@@H](C)C1=O (stereo partly shown) [Compound 5a]
IL-1β, significant reduction in culture supernatant vs LPS treatment ([1]; 0.1 nM): ++ (“++” indicates a p value <0.01 in Tukey post test) | IL-6, significant reduction in culture supernatant vs LPS treatment ([1]; 0.1 nM): NS | TNF-α, significant reduction in culture supernatant vs LPS treatment ([1]; 0.1 nM): NS | IL-1β, significant reduction in culture supernatant vs LPS treatment ([1]; 10 nM): ++ (“++” indicates a p value <0.01 in Tukey post test) | IL-6, significant reduction in culture supernatant vs LPS treatment ([1]; 10 nM): + (“+” indicates a p value <0.05 in Tukey post test) | TNF-α, significant reduction in culture supernatant vs LPS treatment ([1]; 10 nM): NS | IL-1β, significant reduction in culture supernatant vs LPS treatment ([1]; 1000 nM): ++ (“++” indicates a p value <0.01 in Tukey post test) | IL-6, significant reduction in culture supernatant vs LPS treatment ([1]; 1000 nM): ++ (“++” indicates a p value <0.01 in Tukey post test) | TNF-α, significant reduction in culture supernatant vs LPS treatment ([1]; 1000 nM): + (“+” indicates a p value <0.05 in Tukey post test) | expression of IL-1β and TNF-α [1]: significantly reduced | expression of IL-6 [1]: significantly reduced | Neutrophils in BALF, reduction in cell count vs disease control ([2]; 0.075 mg/kg IV): ++ (++ = >25% reduction in cell count vs disease control) | Total Leukocytes in BALF, reduction in cell count vs disease control ([2]; 0.075 mg/kg IV): ++ (++ = >25% reduction in cell count vs disease control) | Neutrophils in BALF, reduction in cell count vs disease control ([2]; 0.75 mg/kg IV): + (+ = >5% reduction in cell count vs disease control) | Total Leukocytes in BALF, reduction in cell count vs disease control ([2]; 0.75 mg/kg IV): + (+ = >5% reduction in cell count vs disease control) | Neutrophils in BALF, reduction in cell count vs disease control ([2]; 7.5 mg/kg IV): + (+ = >5% reduction in cell count vs disease control) | Total Leukocytes in BALF, reduction in cell count vs disease control ([2]; 7.5 mg/kg IV): + (+ = >5% reduction in cell count vs disease control) | total leukocyte counts and neutrophil counts in BALF compared to LPS-only controls [2]: reduced both total leukocyte counts and neutrophil counts | IFN-γ expression in paw skin, change compared to CFA alone (CFA-stimulated rats; 10 mg/kg PO): + (+ = statistically significant change in expression compared to CFA alone, p < 0.05) | IL-4 expression in paw skin, change compared to CFA alone (CFA-stimulated rats; 10 mg/kg PO): + (+ = statistically significant change in expression compared to CFA alone, p < 0.05) | TNF-α expression in paw skin, change compared to CFA alone (CFA-stimulated rats; 10 mg/kg PO): + (+ = statistically significant change in expression compared to CFA alone, p < 0.05) | IFN-γ expression in paw skin, change compared to CFA alone (CFA-stimulated rats; 20 mg/kg PO): + (+ = statistically significant change in expression compared to CFA alone, p < 0.05) | IL-4 expression in paw skin, change compared to CFA alone (CFA-stimulated rats; 20 mg/kg PO): + (+ = statistically significant change in expression compared to CFA alone, p < 0.05) | TNF-α expression in paw skin, change compared to CFA alone (CFA-stimulated rats; 20 mg/kg PO): + (+ = statistically significant change in expression compared to CFA alone, p < 0.05)
